From paper PMC7217877, “N-AS-triggered SPMs are direct regulators of microglia in a model of Alzheimer’s disease” (Nature Communications, 2020)
Several values for one entry are separate records, joined by “and”; a condition that tells them apart may be missing. Equal values may be shown once.

Legend:
APP/PS1 mice = experiment: thioflavin S staining of Aβ plaques in cortex and hippocampus (Fig 6a); type: in vivo, mouse; conditions: APP/PS1 + N-AS, individual values
Protocol: Thioflavin S (Sigma-Aldrich) staining was carried out according to previously described procedures. We used 6E10 (mouse, 1:100, Signet, SIG39300), anti-20G10 (mouse, 1:1000, provided by D. R. Howlett, GlaxoSmithKline, Harlow, Essex, UK) for Aβ42, anti-G30 (rabbit, 1:1000, provided by D. R. Howlett) for Aβ40, SMA (mouse, 1:400, Sigma-Aldrich, A2547), AT8 (mouse, 1:500, Thermo Fisher Scientific, MN1020), Caspase-3 (mouse, 1:200, Novus Biologicals, NB100-56708), ac-S565 (rabbit, 1:100), COX2 (mouse, 1:250, Thermo Fisher Scientific, 35-8200), Iba1 (rabbit, 1:500, Wako, 019-19941 and goat, Abcam, ab5076), NeuN (mouse, 1:500, Millipore, MAB177), GFAP (rabbit, 1:500, Dako, N1506 and chicken, 1:500, Abcam, ab4674), and Lamp1 (mouse, 1:200, Abcam, ab24170). The sections were analyzed with a laser-scanning confocal microscope (FV3000; Olympus) or with a BX51 microscope (Olympus). MetaMorph software (Molecular Devices) was used to quantification. Three-dimensional reconstruction of microglia was recorded and analyzed using IMARIS software (Bitplane)[11]. For the analysis of age-dependent microglial COX2^+ CX3CR1^+ cells in WT and APP/PS1 mice, COX2 (rabbit, 1:100, Abcam, ab15191) and CX3CR1 (mouse, 1:100, BioLegend, 149008) antibody were used and the images were acquired on Alexa 488 and APC Channel with performed using Operetta CLS and Analysis Software 4.5 (Perkin-Elmer). […]

microglia = experiment: sphingosine level in primary cells (UPLC); type: cell-based, C57BL/6 mice; conditions: Ab 10mM, replicates
Protocol: To confirm the generation and roles of N-AS in neurons, cells from E18 C57BL/6 mice were prepared as previously described. Cortices were dissected and then dissociated followed by incubation in papain (Worthington) at 37 °C for 15 min. Neurons were plated on poly-L-lysine-coated coverslips with neuronal culture medium, serum-free Neurobasal medium (Gibco) containing 2% B27 supplements (Gibco), 1 mM Glutamax supplement (Gibco), and 100 U ml^−1 streptomycin/ 100 U ml^−1 penicillin (Gibco) at 37 °C in a humidified atmosphere of 5% CO2. Aβ 1–42 (10 μM, 24 h, Invitrogen, 03112) was exposed to neurons and the cells were analyzed for the generation and roles of N-AS. Primary astrocyte cultures were prepared from C57BL/6 mice as described previously. […] The human microglia treated with Aβ 1–42 and/or zileuton was incubated with N-AS (2.5 μM, 2 h, Sigma-Aldrich, 01912), and were analyzed for the generation and roles of N-AS.
To quantify the sphingosine levels, the dried lipid extract was resuspended in 0.2% Igepal CA-630. […] The fluorescent sphingosine was monitored using a model 474 scanning fluorescence detector (Waters). Quantification of the sphingosine was calculated from sphingosine calibration curves using the Waters Millennium software.

| Compound | area occupied by Aβ plaques (thioflavin S) (APP/PS1 mice; Cortex) | area occupied by Aβ plaques (thioflavin S) (APP/PS1 mice; Hippocampus) | sphingosine (Fig 3f) (microglia) |
| --- | --- | --- | --- |
| CCCCCCCCCCCCC/C=C/[C@@H](O)[C@H](CO)NC(C)=O [N-AS, N-((2S,3R,E)-1,3-Dihydroxyoctadec-4-en-2-yl)acetamide] | 0.5468 and 0.5931 and 0.5106 and 0.2602 and 0.3052 and 0.2223 and 0.2101 and 0.1051 | 0.3692 and 0.3742 and 0.26 and 0.2921 and 0.4067 and 0.08652 and 0.2333 and 0.1243 | – |
| Ab: Aβ 1–42 (Invitrogen, 03112) used to induce an AD environment in cells | – | – | 0.15 and 0.136 and 0.128 and 0.16 and 0.14 and 0.144 |
